Source: patent US11046709B2, “Fused 1,4-diazepines as BET bromodomain inhibitors” (THE REGENTS OF THE UNIVERSITY OF MICHIGAN, priority 2017, dated 2021)
Read-outs that look alike come from different tables or passages of the source.

Tests used:
MDA-MB-231 = test: Cell growth inhibition, 4-day proliferation assay, MDA-MB-231; assay type: cell-based; conditions: Homo sapiens
Description: (§1) The effect of representative Compounds of the Disclosure on cell viability was determined in a 4-day proliferation assay. Cells were maintained in the appropriate culture medium with 100/0 FBS at 37° C. and an atmosphere of 5% CO2. All the cell lines were used within three months of thawing fresh vials.
(§2) In general, cells were seeded in 96-well flat bottom (Corning COSTAR, Corning, N.Y., cat #3595) or white opaque cell culture plates (BD Falcon, cat #353296) at a density of 3,000-10,000 cells/well in 75 μl of culture medium. Compounds were serially diluted in the appropriate medium, and 75 μl of the diluted compounds were added to the appropriate wells of the cell plate. After the addition of compounds, the cells were incubated at 37° C. in an atmosphere of 5% CO2 for 4 days. Cell viability was determined using the CellTiter-Glo® Luminescent Cell Viability Assay Kit (Promega, Madison, Wis.) for leukemia cells and WST (2-(2-methoxy-4-nitrophenyl)-3-(4-nitrophenyl)-5-(2,4-disulfophenyl)-2H-tetrazolium, monosodium salt) Cell Counting-8 Kit (Dojindo Molecular Technologies, Inc., Rockville, Md.) for adherent cells according to the manufacturers' instructions.
(§3) For WST assay (adherent cells), WST-8 reagent was added to each well at a final concentration of 10% (v/v), and then the plates were incubated at 37° C. for 1-2 hours for color development. The absorbance was measured at 450 nm using a SPECTRAmax PLUS plate reader (Molecular Devices, Sunnyvale, Calif.). The readings were normalized to the DMSO-treated cells and the half maximal inhibitory concentration (IC50) was calculated by nonlinear regression (four parameters sigmoid fitted with variable slope, least squares fit, and no constraint) analysis using the GraphPad Prism 5 software (GraphPad Software, La Jolla, Calif.).
(§4) For CellTiter-Glo assay (suspension cells), 100 μl of CellTiter-Glo® Reagent was added to each well, and then the plates were incubated at room temperature for 10-20 minutes. The luminescent signal was measured using a Tecan Infinite M1000 multimode microplate reader (Tecan, Morrisville, N.C.). The readings were normalized to the DMSO-treated cells and the IC50 was calculated by nonlinear regression (four parameters sigmoid fitted with variable slope, least squares fit, and no constraint) analysis using the GraphPad Prism 5 software. See US 2014/0256706.
(§5) For a number of representative compounds in Table 5, their IC50 values in cell growth inhibition activity in the RS4;11 and MOLM-13 human leukemia cell lines and the MDA-MB-231 breast cancer cell line were evaluated using the WST-8 assay described in EXAMPLE 7, with the data shown in Table 7.

MOLM-13 = test: Cell growth inhibition, 4-day proliferation assay, MOLM-13; assay type: cell-based; conditions: Homo sapiens, MOLM-13, WST-8 assay, Table 7; read-out: Cell growth inhibition (IC50 (nM)) MOLM-13
Description: as §1, §2, §3, §4, §5

[1] = MDA-MB-231, WST-8 assay, Table 7, read-out: Cell growth inhibition (IC50 (nM)) MDA-MB-231

| Structure (SMILES) | IC50 (MDA-MB-231; [1]) | IC50 (MDA-MB-231; MDA-MB-231, read-out: Cell growth inhibition (IC50 (nM)) MDA-MB-231) | IC50 (MOLM-13) |
| --- | --- | --- | --- |
| Cc1c(C#Cc2cnn(CCCC(=O)O)c2)sc2c1C(c1ccc(Cl)cc1)=N[C@@H](C)c1nnc(C)n1-2 [Compound 101, (S)-4-(4-((4-(4-chlorophenyl)-3,6,9-trimethyl-6H-thieno[3,2-f][1,2,4]triazolo[4,3-a][1,4]diazepin-2-yl)ethynyl)-1H-pyrazol-1-yl)butanoic acid] | 1030 ± 700 nM |  |  |
| Cc1c(C#Cc2cnn(CCC(=O)O)c2)sc2c1C(c1ccc(Cl)cc1)=N[C@@H](C)c1nnc(C)n1-2 [Compound 102, (S)-3-(4-((4-(4-chlorophenyl)-3,6,9-trimethyl-6H-thieno[3,2-f][1,2,4]triazolo[4,3-a][1,4]diazepin-2-yl)ethynyl)-1H-pyrazol-1-yl)propanoic acid] |  | 3000 ± 300 nM |  |
| Cc1c(C#Cc2cccnc2)sc2c1C(c1ccc(Cl)cc1)=N[C@@H](CC(C)C)c1nnc(C)n1-2 [Compound 106, (S)-4-(4-chlorophenyl)-6-isobutyl-3,9-dimethyl-2-(pyridin-3-ylethynyl)-6H-thieno[3,2-f][1,2,4]triazolo[4,3-a][1,4]diazepine] | 670 ± 100 nM |  | 393 nM |
| Cc1c(C#Cc2ccc(N)nc2)sc2c1C(c1ccc(Cl)cc1)=N[C@@H](CC(C)C)c1nnc(C)n1-2 [Compound 107, (S)-5-((4-(4-chlorophenyl)-6-isobutyl-3,9-dimethyl-6H-thieno[3,2-f][1,2,4]triazolo[4,3-a][1,4]diazepin-2-yl)ethynyl)pyridin-2-amine] | 320 ± 90 nM |  | 363 nM |
| Cc1c(C#Cc2cnn(C)c2)sc2c1C(c1ccc(Cl)cc1)=N[C@@H](CC(C)C)c1nnc(C)n1-2 [Compound 108, (S)-4-(4-chlorophenyl)-6-isobutyl-3,9-dimethyl-2-((1-methyl-1H-pyrazol-4-yl)ethynyl)-6H-thieno[3,2-f][1,2,4]triazolo[4,3-a][1,4]diazepine] | 200 ± 30 nM |  | 232 nM |
| Cc1c(C#Cc2ccccn2)sc2c1C(c1ccc(Cl)cc1)=N[C@@H](CC(=O)NC1CCOCC1)c1nnc(C)n1-2 [Compound 133, (S)-2-(4-(4-chlorophenyl)-3,9-dimethyl-2-(pyridin-2-ylethynyl)-6H-thieno[3,2-f][1,2,4]triazolo[4,3-a][1,4]diazepin-6-yl)-N-(tetrahydro-2H-pyran-4-yl)acetamide] | 338 nM |  | 8.4 nM |
| Cc1c(C#Cc2ccccn2)sc2c1C(c1ccc(Cl)cc1)=N[C@@H](CC(=O)N1CCC(C)(O)CC1)c1nnc(C)n1-2 [Compound 137, (S)-2-(4-(4-chlorophenyl)-3,9-dimethyl-2-(pyridin-2-ylethynyl)-6H-thieno[3,2-f][1,2,4]triazolo[4,3-a][1,4]diazepin-6-yl)-1-(4-hydroxy-4-methylpiperidin-1-yl)ethan-1-one] | > 10000 nM |  | 43200 nM |
| Cc1c(C#Cc2ccccn2)sc2c1C(c1ccc(Cl)cc1)=N[C@@H](CC(=O)N1CC(C)(O)C1)c1nnc(C)n1-2 [Compound 138, (S)-2-(4-(4-chlorophenyl)-3,9-dimethyl-2-(pyridin-2-ylethynyl)-6H-thieno[3,2-f][1,2,4]triazolo[4,3-a][1,4]diazepin-6-yl)-1-(3-hydroxy-3-methylazetidin-1-yl)ethan-1-one] | 211 nM |  | 15 to 30 nM |
| Cc1nnc(C[C@@H]2N=C(c3ccc(Cl)cc3)c3c(sc(C#Cc4ncccc4F)c3C)-n3c(C)nnc32)o1 [Compound 139, (S)-2-((4-(4-chlorophenyl)-2-((3-fluoropyridin-2-yl)ethynyl)-3,9-dimethyl-6H-thieno[3,2-f][1,2,4]triazolo[4,3-a][1,4]diazepin-6-yl)methyl)-5-methyl-1,3,4-oxadiazole] | 28.9 nM |  | 4 to 10 nM |
| Cc1nnc(C[C@@H]2N=C(c3ccc(Cl)cc3)c3c(sc(C#Cc4ccc(F)cn4)c3C)-n3c(C)nnc32)o1 [Compound 140, (S)-2-((4-(4-chlorophenyl)-2-((5-fluoropyridin-2-yl)ethynyl)-3,9-dimethyl-6H-thieno[3,2-f][1,2,4]triazolo[4,3-a][1,4]diazepin-6-yl)methyl)-5-methyl-1,3,4-oxadiazole] | 52.6 nM |  | 11.3 nM |
| Cc1nnc(C[C@@H]2N=C(c3ccc(Cl)cc3)c3c(sc(C#Cc4cnn(C)c4)c3C)-n3c(C)nnc32)o1 [Compound 141, (S)-2-((4-(4-chlorophenyl)-3,9-dimethyl-2-((1-methyl-1H-pyrazol-4-yl)ethynyl)-6H-thieno[3,2-f][1,2,4]triazolo[4,3-a][1,4]diazepin-6-yl)methyl)-5-methyl-1,3,4-oxadiazole] | 31.2 nM |  | 1.7 nM |
| Cc1nnc(C[C@@H]2N=C(c3ccc(Cl)cc3)c3c(sc(C#CC4(O)COC4)c3C)-n3c(C)nnc32)o1 [Compound 142, (S)-3-((4-(4-chlorophenyl)-3,9-dimethyl-6-((5-methyl-1,3,4-oxadiazol-2-yl)methyl)-6H-thieno[3,2-f][1,2,4]triazolo[4,3-a][1,4]diazepin-2-yl)ethynyl)oxetan-3-ol] | 785 nM |  | 95.9 nM |
| Cc1nnc(C[C@@H]2N=C(c3ccc(Cl)cc3)c3c(sc(C#CC4CCCC4)c3C)-n3c(C)nnc32)o1 [Compound 146, (S)-2-((4-(4-chlorophenyl)-2-(cyclopentylethynyl)-3,9-dimethyl-6H-thieno[3,2-f][1,2,4]triazolo[4,3-a][1,4]diazepin-6-yl)methyl)-5-methyl-1,3,4-oxadiazole] | 22.5 nM |  | 17.4 nM |
| Cc1nnc(C[C@@H]2N=C(c3ccc(Cl)cc3)c3c(sc(C#CC(C)(C)C)c3C)-n3c(C)nnc32)o1 [Compound 147, (S)-2-((4-(4-chlorophenyl)-2-(3,3-dimethylbut-1-yn-1-yl)-3,9-dimethyl-6H-thieno[3,2-f][1,2,4]triazolo[4,3-a][1,4]diazepin-6-yl)methyl)-5-methyl-1,3,4-oxadiazole] | 20.1 nM |  | 7.4 nM |
| Cc1nnc(C[C@@H]2N=C(c3ccc(Cl)cc3)c3c(sc(C#CC(C)C)c3C)-n3c(C)nnc32)o1 [Compound 148, (S)-2-((4-(4-chlorophenyl)-3,9-dimethyl-2-(3-methylbut-1-yn-1-yl)-6H-thieno[3,2-f][1,2,4]triazolo[4,3-a][1,4]diazepin-6-yl)methyl)-5-methyl-1,3,4-oxadiazole] | 7.7 nM |  | 6 nM |
| Cc1c(C#Cc2cncn2C)sc2c1C(c1ccc(Cl)cc1)=N[C@@H](CC(=O)N1CCN(C)CC1)c1nnc(C)n1-2 [Compound 165, (S)-2-(4-(4-chlorophenyl)-3,9-dimethyl-2-((1-methyl-1H-imidazol-5-yl)ethynyl)-6H-thieno[3,2-f][1,2,4]triazolo[4,3-a][1,4]diazepin-6-yl)-1-(4-methylpiperazin-1-yl)ethan-1-one] |  |  | 36.4 nM |
| Cc1c(C#Cc2ccccn2)sc2c1C(c1ccc(Cl)cc1)=N[C@@H](CC(=O)N1CC3(CNC3)C1)c1nnc(C)n1-2 [Compound 170, (S)-2-(4-(4-chlorophenyl)-3,9-dimethyl-2-(pyridin-2-ylethynyl)-6H-thieno[3,2-f][1,2,4]triazolo[4,3-a][1,4]diazepin-6-yl)-1-(2,6-diazaspiro[3.3]heptan-2-yl)ethan-1-one] |  |  | 115 nM |
| Cc1c(C#Cc2ccccn2)sc2c1C(c1ccc(Cl)cc1)=N[C@@H](CC(=O)N1CCC(F)(F)C1)c1nnc(C)n1-2 [Compound 171, (S)-2-(4-(4-chlorophenyl)-3,9-dimethyl-2-(pyridin-2-ylethynyl)-6H-thieno[3,2-f][1,2,4]triazolo[4,3-a][1,4]diazepin-6-yl)-1-(3,3-difluoropyrrolidin-1-yl)ethan-1-one] |  |  | 151 nM |
| Cc1c(C#Cc2ccccn2)sc2c1C(c1ccc(Cl)cc1)=N[C@@H](CC(=O)N1CCCC(F)(F)C1)c1nnc(C)n1-2 [Compound 172, (S)-2-(4-(4-chlorophenyl)-3,9-dimethyl-2-(pyridin-2-ylethynyl)-6H-thieno[3,2-f][1,2,4]triazolo[4,3-a][1,4]diazepin-6-yl)-1-(3,3-difluoropiperidin-1-yl)ethan-1-one] |  |  | 71 nM |
| Cc1c(C#Cc2ccccn2)sc2c1C(c1ccc(Cl)cc1)=N[C@@H](CC(=O)N1CCC(F)CC1)c1nnc(C)n1-2 [Compound 173, (S)-2-(4-(4-chlorophenyl)-3,9-dimethyl-2-(pyridin-2-ylethynyl)-6H-thieno[3,2-f][1,2,4]triazolo[4,3-a][1,4]diazepin-6-yl)-1-(4-fluoropiperidin-1-yl)ethan-1-one] | 9.67 nM |  |  |
